# Experimental data from PubChem BioAssay AID179 (DTP/NCI, 2004).
# pEC50, pIC50: −log10 of the molar value. Where “and” joins values, the source holds several entries; their conditions need not be identical. Equal values may be shown once. Calls of active or inactive are those of the source.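 The calls were made as follows: active = compounds giving half or more protection of infected cells from virus-caused growth loss, again on retest; inactive = the rest.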 Where a SMILES comes first, the peptide text is derived from it. The star is where a group is joined. Myristoyl = CCCCCCCCCCCCCC(=O)*
# System: CEM cells HIV-1 protection, formazan growth assay
# Assay: NCI AIDS Antiviral Assay
# Settings: for pIC50: measured here: growth of uninfected CEM cells
# Method in brief: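 Steps: treat uninfected and HIV-1-infected human CEM cells at five drug levels; quantify growth by soluble formazan; retest any compound reaching 50% protection; classify actives from the retest.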
SMILES,pEC50,pIC50,outcome
N=CCCN(CCC=N)c1ccc(/C=C2\CN(NC(=O)c3ccc(Cl)cc3)C(c3ccccc3)=N2)cc1,< 4.15,< 4.15,–
CC(=O)C1=C(O)C(c2ccccc2)c2ccccc21 (stereo unspecified),< 3.41,4.01,–
c1ccc(CN2CCC3(CC2)SSC2(CCN(Cc4ccccc4)CC2)SS3)cc1,< 4.00,4.19,–
Brc1ccc(-c2cc(-c3ccc4c(c3)OCO4)c(-c3cccs3)n2Cc2ccccc2)cc1,< 3.70,< 3.70,–
O=C(CBr)N1CCC2(CC1)SSC1(CCN(C(=O)CBr)CC1)S2,< 3.70,6.24,–
CN1CCN(C)C(=O)CSSCC1=O,< 3.82,< 3.82,–
O=[N+]([O-])O.[Tb],–,–,inactive
CCSc1nc2sc(C)c(C)c2c(=O)n1-c1ccc(C(=O)O)cc1,< 3.70,< 3.70,–
Cc1cc(C2(c3cc(C)c(O)c4ncccc34)OC(=O)c3ccccc32)c2cccnc2c1O,< 5.70,6.99,–
Cc1cc2c(C(C)C)c(O)c(O)c(C=Nc3cccc(Cl)c3)c2c(O)c1-c1c(C)cc2c(C(C)C)c(O)c(O)c(C=Nc3cccc(Cl)c3)c2c1O,–,–,inactive
CN(C)CCNc1ccc([N+](=O)[O-])c2nc3ccccc3c(N)c12,< 3.70,5.71,–
Cc1[nH]c2ccccc2c1C(=O)CC1(O)C(=O)Nc2c(Cl)cc(Cl)cc21 (stereo unspecified),< 3.47,3.80,–
CCOC(=O)c1ccc(CSc2ccccc2)c([N+](=O)[O-])c1,< 4.23,< 4.23,–
Cn1cccnc1=O,< 3.70,< 3.70,–
Cc1ccc(S(=O)c2cccs2)cc1 (stereo unspecified),< 2.95,3.74,–
C[C@@]12C[C@@H](c3ccccc3O1)N1CCSC1=N2,–,–,inactive
Cn1c(COc2ccc(/C=N\NC(=O)c3ccc(C(=O)N/N=C/c4ccc(OCc5c[n+]6ccccc6n5C)cc4)cc3)cc2)c[n+]2ccccc12,5.34,5.02,–
CC1(C)CC2C(C1=O)C1(C)CCCC2(C)C1=O (stereo unspecified),< 3.70,< 3.70,–
CC(=O)OCC1OC(n2c3c(cc(C#N)c2=S)CCC3)C(OC(C)=O)C(OC(C)=O)C1OC(C)=O (stereo unspecified),< 3.70,3.99,–
COc1ccc(C2C(C#N)=C(N)C(C#N)=C3Oc4ccccc4N32)cc1 (stereo unspecified),< 3.70,< 3.70,–
Cc1nc2c(ncn2CCO)c(=O)[nH]1,< 3.70,< 3.70,–
CC(C)NC(=O)OCc1c(COC(=O)NC(C)C)n(C)c2c1ccc1sccc12,< 3.70,5.67,–

SMILES,pEC50,pIC50,outcome
COC(=O)C1(C)OS(=O)(=O)c2ccccc21 (stereo unspecified),< 3.27,< 3.27,–
Cc1cc2c(c3oc(=O)ccc13)[C@@H](OC(=O)C13CCC(C)(C(=O)O1)C3(C)C)[C@@H](OC(=O)C13CCC(C)(C(=O)O1)C3(C)C)C(C)(C)O2 (stereo partly specified),6.42,5.70,–
CN1CSC(=S)N(C)C1,< 3.70,4.88,–
COc1ccc2c(c1)[C@@H]1c3cc(OC)c(OC)cc3CCN1CCC2,< 3.70,< 3.70,–
O=C(O)c1[nH]c(C(=O)O)c(CC(F)(F)C(F)(F)C(F)(F)F)c1CC(F)(F)C(F)(F)C(F)(F)F,–,–,inactive
CCOC(=O)C1=C(C)N(Cc2ccccc2)C(C)=C(C(=O)OCC)C1c1ccccc1O,< 4.78,< 4.78,–
C[C@@H]1C(N2CCCC2)=CC(=O)OC1c1ccccc1 (stereo partly specified),< 3.70,< 3.70,–
CN1C(=O)/C(=C2\SC(=O)N(CN3CCCCC3)C2=O)c2cc(Br)ccc21,< 3.70,4.04,–
O=C(NC/C(Br)=C/Br)Nc1cnc2ccccc2c1,< 3.70,4.09,–
COc1ccc(/C=N/NS(=O)(=O)c2ccccc2)cc1,–,–,inactive
COP(=O)(Cc1ccc(/C=C/C#N)o1)OC,< 3.70,< 3.70,–
O=C1CC2(CCC(O)(c3ccccc3)C(C(=O)c3ccccc3)C2)C(=O)c2ccccc2N1 (stereo unspecified),< 3.70,< 3.70,–
COC(=O)c1cc(C(=CCl)c2cc(C(=O)OC)c(OC)c(Br)c2C)c(C)c(Br)c1OC,< 3.70,5.19,–
O=C(CCCn1ccnc1[N+](=O)[O-])NCCn1ccnc1[N+](=O)[O-],< 3.70,< 3.70,–
COc1cc([N+](=O)[O-])ccc1NC(=O)Nc1cc(C)ccn1,< 3.70,< 3.70,–
O=S(O)CCCCCSSc1ccc(Cl)cc1,–,–,inactive
CC(=O)NC(N)=NC#N,< 2.70,< 2.70,–
Cc1cc(Br)cc(C)c1NC(=O)C(=O)Nn1c(=S)[nH]c2ccccc2c1=O,< 3.68,< 3.68,–
CCOC(=O)NN(C(=O)OCC)c1c(C)cc(C)cc1C,< 3.70,< 3.70,–
Cc1cc(NC(=O)c2ccc(N=Nc3c(S(=O)(=O)O)cc4cc(NC(=O)c5ccc(N)cc5)ccc4c3O)cc2)ccc1N=Nc1ccc2cc(S(=O)(=O)O)cc(S(=O)(=O)O)c2c1,–,–,active
Fc1ccc(OCc2nc3cc(C(F)(F)F)ccc3nc2-c2ccccc2)cc1,< 3.70,3.86,–
CCC=C(c1cc(Cl)c(OC)c(C(=O)OC)c1)c1cc(Cl)c(OC)c(C(=O)OC)c1,< 5.08,< 5.08,–

SMILES,pEC50,pIC50,outcome
COC(=O)c1cc(C(=O)OC)c(C/C(=N/Nc2ccc([N+](=O)[O-])cc2[N+](=O)[O-])C(=O)Nc2cccc(C(F)(F)F)c2)nc1C/C(=N/Nc1ccc([N+](=O)[O-])cc1[N+](=O)[O-])C(=O)Nc1cccc(C(F)(F)F)c1,< 3.70,4.15,–
Cc1ccc(S(=O)(=O)C2CC2(Cl)Cl)cc1 (stereo unspecified),–,–,inactive
COc1ccccc1S(=O)Nc1ccccc1 (stereo unspecified),< 3.70,< 3.70,–
COc1c(C(C)C)cc2c3c1OC(=O)[C@@]31CCCC(C)(C)C1CC2 (stereo partly specified),< 3.70,4.51,–
Nc1nc(Cl)nc2c1ncn2C1CCC(COP(=O)(O)OP(=O)(O)OP(=O)(O)O)O1 (stereo unspecified),–,–,active
CCCCCCCCCCCCCC(=O)NCC(=O)NC(CO)C(=O)NC(CO)C(=O)NC(CCCCN)C(=O)NC(CO)C(=O)NC(CCCCN)C(=O)N1CCCC1C(=O)NC(CCCCN)C(=O)NC(CC(=O)O)C(N)=O (stereo unspecified) (Myristoyl-GSSKSKPKD-NH2; configuration not given here),< 3.66,< 3.66,–
C1CSCCCSCCSCCCSC1,< 4.74,< 4.74,–
O=c1c2c(c1=O)-c1ccccc1CN2,< 3.70,< 3.70,–
COc1ccc(NC(=O)CC/C(CC(=O)c2ccco2)=N/NC(=O)C(N)=O)cc1,< 4.60,< 4.60,–
Cc1cc(C)c2c(c1)CC1(Cc3c(ccc(C)c3C)C1=O)C2=O (stereo unspecified),< 4.00,< 4.00,–
COC(=O)c1cc(C(=O)Nc2cc(Cc3cc(NC(=O)c4ccc(OC)c(C(=O)OC)c4)c(OC)c(C(=O)OC)c3)cc(C(=O)OC)c2OC)ccc1OC,< 3.70,< 3.70,–
O=c1c2n[nH]nc2nc2n1CC(c1ccccc1)S2 (stereo unspecified),–,–,inactive
COC(=O)C(=O)c1cc2ccccc2n1S(=O)(=O)c1ccccc1,< 3.70,< 3.70,–
c1csc(-c2cc(-c3ccsc3)cs2)c1,< 3.70,< 3.70,–
CN=C1Nc2ccc(Cl)cc2C(c2ccccc2)=NN1C,< 3.92,4.03,–
O=c1cn[nH]c2cc(Cl)ccc12,< 3.93,< 3.93,–
O=C(O)C(CS(=O)(=O)O)S(=O)(=O)O (stereo unspecified),–,–,inactive
NC(N)=NCCN1CC2CCC(CC2)C1,4.21,3.82,–
c1nc2nc3c(cn2n1)CCCCC3,< 3.70,< 3.70,–
c1ccc(N2N=NC3CCCC32)cc1 (stereo unspecified),< 3.70,4.02,–
COC(=O)/C=C/C1C(C(=O)OC)C2(C(=O)OC)CCC1(C(=O)OC)N2 (stereo unspecified),–,–,inactive
COC(=O)c1c(C)cccc1C1CN=NC12Cc1ccc(C)cc1C2=O (stereo unspecified),< 4.14,4.38,–

SMILES,pEC50,pIC50,outcome
O=c1[nH]c2nc3ccccc3c(=O)n2/c1=C/c1ccco1,< 3.70,< 3.70,–
Cc1ccc(Nc2cc(=O)[nH]c(=O)[nH]2)cc1CS,< 3.70,4.03,–
O=C(NCCCCCCNC(=O)c1cc(-c2ccccc2)nc2ccccc12)c1cc(-c2ccccc2)nc2ccccc12,< 3.70,< 3.70,–
Oc1ccc(Cl)cc1-c1nc2ccccc2s1,< 3.86,4.12,–
O=C1c2c([nH]ccc2=O)-c2nccc3c2c1nc1ccccc13,< 5.70,6.22,–
O=C1CCCc2cc3c(cc21)CCC3C(=O)O (stereo unspecified),–,–,inactive
CCOC(=O)C1(Cc2ccccc2)SCCCS1,< 4.04,< 4.04,–
O=c1nc2n(cc1F)C1OC(CCl)C(O)C1O2 (stereo unspecified),< 3.70,< 3.70,–
CCOC(=O)c1ccc(OCc2nc3cc(C(F)(F)F)ccc3nc2-c2ccccc2)cc1,< 3.70,4.06,–
CCOC(=O)N1CCC2(CC1)C[C@](C)(C(C)=O)C(C)O2 (stereo partly specified),< 3.70,< 3.70,–
CCOc1ccc(Nc2nc(C)c(C(=O)CC(=O)C(=O)Nc3ccc(Cl)c(C(F)(F)F)c3)s2)cc1,< 3.70,< 3.70,–
NCCCCNCCCN1CC1,< 3.70,6.83,–
CC(=O)OC1COC(n2c(=S)n(-c3ccccc3)c(=O)c3ccccc32)C(OC(C)=O)C1OC(C)=O (stereo unspecified),< 4.44,< 4.44,–
O=[N+]([O-])c1cccc(S(=O)(=O)c2ccc(F)c([N+](=O)[O-])c2)c1,< 3.70,6.30,–
O=C(CC1(O)C(=O)Nc2ccc(Br)cc21)c1ccc2c(c1)OCO2 (stereo unspecified),< 3.70,3.75,–
CCOC(=O)C(C)(C)C(OP(=S)(OCC)OCC)=C(C)C,< 5.51,< 5.51,–
CCOC1N(C2CC(N=[N+]=[N-])C(CO)O2)C(=O)NC(=O)C1(C)Br (stereo unspecified),8.09 and 8.20,4.65 and 4.76,–
OC[C@@H]1C(O)[C@H](O)[C@H]2C(O)CCN12 (stereo partly specified),< 2.88,< 2.88,–
Cc1cn(C2CC(O)C(CO)(C(F)(F)F)O2)c(=O)[nH]c1=O (stereo unspecified),< 3.70,< 3.70,–
CCCCCC=C(c1cc(Cl)c(OC)c(C(=O)OC)c1)c1cc(Cl)c(OC)c(C(=O)OC)c1,4.75,4.54,–
CCSC1=[N+](SCC)CCCS1,< 3.15,3.57,–
